According to paper PMC7939473, “Unique active-site and subsite features in the arabinogalactan-degrading GH43 exo-β-1,3-galactanase from Phanerochaete chrysosporium” (The Journal of Biological Chemistry, 2021):

Biological target: T1, Pc1,3Gal43A (Phanerodontia chrysosporium, UniProt Q50KB2, E208A)
T1 construct: signal peptide removed; Gln21-Tyr448 (428 residues) plus two extra N-terminal residues Glu19-Phe20 from restriction site; GH43_sub24 catalytic domain (21-325) + CBM35 (326-448); expressed in Pichia pastoris, N-glycosylated at Asn79, Asn194, Asn389; monomer in solution
Experiment: X-ray crystallography (co-crystal, […] Å)
Details: ligand-binding site of the CBM35 domain (not in catalytic site); 10 mM Gal3; pH 4.5

T1 sequence (Q50KB2 entry or part of it E208A): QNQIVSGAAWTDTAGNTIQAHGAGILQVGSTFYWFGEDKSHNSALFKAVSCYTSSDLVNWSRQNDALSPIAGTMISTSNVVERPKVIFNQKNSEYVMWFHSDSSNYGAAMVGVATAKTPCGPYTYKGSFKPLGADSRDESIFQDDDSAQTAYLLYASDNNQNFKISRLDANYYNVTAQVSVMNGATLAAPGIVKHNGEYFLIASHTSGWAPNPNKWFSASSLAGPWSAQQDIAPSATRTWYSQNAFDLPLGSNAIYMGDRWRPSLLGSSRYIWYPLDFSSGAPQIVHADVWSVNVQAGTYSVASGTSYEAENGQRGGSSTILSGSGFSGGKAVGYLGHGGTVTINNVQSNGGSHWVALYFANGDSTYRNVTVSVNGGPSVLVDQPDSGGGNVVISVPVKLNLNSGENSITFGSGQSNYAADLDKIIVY

Structure (SMILES): OC[C@H]1O[C@@H](O[C@H]2[C@@H](O)[C@@H](CO)O[C@@H](O[C@H]3[C@@H](O)[C@@H](CO)OC(O)[C@@H]3O)[C@@H]2O)[C@H](O)[C@@H](O)[C@H]1O (stereo partly drawn) [Gal3, β-1,3-galactotriose]
- X-ray crystallography (co-crystal, 2.3 Å): In E208A_Gal3, electron density of Gal3 was observed in the ligand-binding site of PcCBM35
